According to US20150118221A1, “COMPOSITIONS AND METHODS FOR TREATING CARDIAC HYPERTROPHY” (THE JOHNS HOPKINS UNIVERSITY, priority 2012, published 2015):
Entries after “also recorded” stand apart in the source; their conditions may differ.

Assays:
p44MAPK = assay: Western immunoblot of p44MAPK in heart tissue
[1] = cited from earlier work
[2] = system: lactosylceramide synthase; assay: Lactosylceramide synthase activity in heart tissue of apoE−/− mice; format: in vivo, mouse; details: 5 mpk and 10 mpk, 20 weeks and 36 weeks
Method: (§1) Approximately 10 mg of heart tissue were homogenized in Tris buffer (pH 7.8) and centrifuged at 10,000 rpm for 10 min. The supernatant was used as a source for enzyme. [^3H]UDP-Gal (American Radiolabled company, St Louis, Mo.) served as the nucleotide sugar donor in LacCer synthase assay and [^3H]UDP-Glc served as the nucleotide sugar donor in GlcCer synthase assay. The details of these assays have been described previously. See Chatterjee, S., 311 METHODS IN ENZYMOLOGY 73-81 (2000). All assays were conducted in triplicate from 3 to 5 aorta samples from mice in each group.

apoE−/− mice [3] = assay: Histology of aorta and heart tissue (wall thickening, fibrosis, plaque accumulation); format: in vivo, mouse; details: FIG. 5
From the text: H&E, Masson's trichrome stained aorta and heart tissue was used for histological analysis for cardiovascular wall thickening and plaque accumulation.

[4] = system: lactosylceramide synthase; assay: Lactosylceramide synthase activity in aorta tissue of D-PDMP-fed apoE−/− mice; details: hyperlipidemic diet; for decrease of LCS activity as compared to hyperlipidemic mouse aorta: 20 week old apoE−/− mice
oxidized -LDL = assay: Serum level of oxidized LDL in apoE−/− mice fed western diet; format: in vivo, mouse
[5] = system: hypertrophic marker, antioxidant and collagen gene mRNA; details: 10 mpk, left ventricular tissue
TGFβ = assay: Western blot of TGFβ in left ventricular heart homogenates; format: in vivo, mouse; details: 5 mpk and 10 mpk
Method: FIG. 16. TGFβ over expression in hypertrophic mouse heart is mitigated by the use of D-PDMP. Left ventricular heart homogenates were prepared from placebo, 5 mpk and 10 mpk treated mouse hearts. Western blot analysis was done using anti TGFβ antibody. Expression levels of GAPDH were used to normalize the protein expression. Expression levels were quantified by using Image J v.1.45s (NIH, USA) software. (a) Western immunoblot of TGF-β. (b) Corresponding densitomeric scan.

apoE−/− mice [6] = assay: Blood pressure, CODA tail cuff system; format: in vivo, mouse
Method: (§2) Aortic pulse wave velocity (PWV) was measured with mice placed supine under anesthesia with 1.5% isoflurane. An ECG-triggered, 2-mm, 10-MHz Doppler probe was used to measure blood flow at the thoracic and abdominal aorta. PWV was calculated by the thoracic-abdominal distance divided by the pulse transit time between the thoracic and abdominal measurement sites. Blood pressure was acquired using the CODA tail cuff system (Kent Scientific Co, USA) to measure systolic and diastolic pressure. Estimated the effect of mean pressure (MP(mmHg) on PWV (m/sec) was calculated using the following equation: PWVc=0.0006(MP)^2-0.0564MP+3.9711.

[7] = target: T1, glucosylceramide synthase (Mus musculus, UniProt O88693); assay: Glucosylceramide synthase activity in heart tissue of apoE−/− mice; format: in vivo; details: 5 mpk and 10 mpk, 20 weeks and 36 weeks
T1 sequence (O88693 1-394): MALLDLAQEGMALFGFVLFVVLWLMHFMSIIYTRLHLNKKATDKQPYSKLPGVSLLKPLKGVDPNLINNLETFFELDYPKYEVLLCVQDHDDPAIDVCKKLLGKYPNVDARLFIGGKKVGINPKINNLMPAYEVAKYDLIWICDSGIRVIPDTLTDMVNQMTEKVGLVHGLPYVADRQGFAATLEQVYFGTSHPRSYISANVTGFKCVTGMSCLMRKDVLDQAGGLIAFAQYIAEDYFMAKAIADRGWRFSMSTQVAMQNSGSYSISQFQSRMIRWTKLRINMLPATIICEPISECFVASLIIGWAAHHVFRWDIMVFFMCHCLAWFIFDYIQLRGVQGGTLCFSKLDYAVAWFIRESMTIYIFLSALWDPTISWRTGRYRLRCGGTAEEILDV
Method: as §1

[8] = target: T1, glucosylceramide synthase; assay: Glucosylceramide synthase activity in aorta tissue of D-PDMP-fed apoE−/− mice; details: 5 and 10 mpk, hyperlipidemic diet, HCl
apoE−/− mice [9] = assay: Aortic pulse wave velocity (PWV), arterial stiffness; format: in vivo, mouse; details: 10 mpk, compared to 5 mpk D-PDMP and placebo
Method: as §2

[10] = system: C57Bl-6 mice subject to trans-aortic constriction; assay: M-mode echocardiography after trans-aortic constriction (TAC); format: in vivo, mouse; details: D-PDMP fed for a week before surgery, vs sham
Method: Normal male mice (C57B1-6), 11 weeks old, were also purchased from the Jackson Laboratory, Bar Harbor, Me.). After having measured the basal physiologic parameters such as blood pressure, weight, and ultra sound measurements, the 9 mice were divided as follows. Six mice were given 100 μL of vehicle (5% Tween-80 in phosphate—buffered saline) by oral gavage. The other three mice were fed 10 mpk of D-PDMP solubilized in vehicle. This procedure was continued for 7 days. Next, 3 mice in mice fed vehicle group and 3 mice fed D-PDMP were subject to trans-aortic constriction (Cingolani et al., 109 CIRC. RES. 00-00 (2011). At one week, two week and six weeks post-surgery, the mice were subjected to M mode ultrasound analysis. Finally, blood was drawn, and the animals were euthanized. The heart was excised, sliced in halves and its anatomy photographed.
(§3) Trans-thoracic echocardiography was performed in conscious mice using the 2100 Visualsonic ultrasound device (Toronto, Ontario, Canada), and the Sequoia Acuson C256 (Malvern, Pa.) system, equipped with a 40 MHz and 15 MHz linear transducer, respectively. M-mode echocardiogram was obtained in the parasternal short axes view of the left ventricle (LV) at the level of the papillary muscles and at sweep speed of 200 mm/sec.
(§4) LV mass (mg): 1.055[(IVSD+LVEDD+PWTED)^3−(LVEDD)^3],

apoE−/− mice [11] = assay: Ultrasound imaging of aortic intima media thickening (AoIMT); details: for aortic intima media thickening (AoIMT): 16 and 20 week old mice
glycosphingolipids [12] = assay: HPLC analysis of glycosphingolipid levels in heart tissue, TAC mice; format: in vivo, mouse; details: mice subject to trans-aortic constriction
Method: (§5) Approximately 10 mg of heart tissue was homogenized in chloroform-methanol (2:1, v/v) and lipids were extracted. Bligh et al., 37.8 CAN. J. BIOCHEM. AND PHYSIOL. 911-17 (1959). The total lipid extracts were dried in nitrogen and subject to deacylation using sphingosine ceramide N-deacylation.

apoE−/− mice [13] = assay: M-mode echocardiography (fractional shortening, LV mass, wall thickness) in apoE−/− mice on high fat and cholesterol diet; format: in vivo, mouse
Method: Apoliporotein E-deficient (ApoE (−/−), male aged 11 weeks were purchased from the Jackson Laboratory, Bar Harbor, Me. At the age of 12 weeks, the Apo E(−/−) mice were started on a high fat and high cholesterol diet (HFHC) consisting of 20% fat, and 1.25% cholesterol (D12108C, Research Diet Inc., New Brunswick, N.J.) for 20 to 36 weeks with and without treatment with D-PDMP (5 mg/kg, 10 mg/kg) and compared to control fed only chow diet and placebo mice fed HFHC+Vehicle (composed of 5% Tween-80 in phosphate buffered saline). Diet was rationed once a week to estimate the weekly growth rate and food intake. Physiological studies were performed around the age of 12, 20 and 36 weeks. Blood was drawn to prepare serum and heart tissues were harvested and studied at molecular and histopathological level. Tissues were harvested at 12, 20 and 36 weeks of age.
Animals were subject to physiological measurements, e.g., weight, blood pressure, ultra sound to measure fractional shortening (FS), left ventricular mass (LVM), heart weight to tibia length ratio, heart anatomy etc. A group of mice (N=5) were euthanized to obtain base line values for aorta and blood samples were collected. The rest of the mice were divided in to several groups. These were: Placebo (mice fed vehicle only (5% Tween-80 in phosphate buffered saline), 5 mpk D-PDMP solubilized in vehicle and 10 mpk D-PDMP solubilized in vehicle). Placebo and D-PDMP was delivered daily by oral gavage. The physiological measurements were repeated at 20 weeks and 36 week interval and then the mice were euthanized by asphyxia. This protocol was approved by the committee for research on animals at the Johns Hopkins University.
as §3, §4

glycosphingolipids [14] = assay: HPLC analysis of glycosphingolipid levels in heart tissue, apoE−/− mice; format: in vivo, mouse
Method: as §5

[15] = TAC and Apo E−/− mice (high fat and cholesterol diet)
[16] = 20 Weeks, 10MPK D-PDMP + Fat, n = 5
[17] = HCHF fed apoE−/− mice, to base line levels

CCCCCCCCCC(=O)N[C@H](CN1CCOCC1)[C@H](O)c1ccccc1.Cl [D-PDMP, D-threo-1-Phenyl-2-decanoylamino-3-morpholino-1-propanol HCl]
level of phosphorylated p44MAPK in heart tissue (p44MAPK; 10 mpk, vs placebo): decrease | phosphorylation of p44MAPK in heart tissue (p44MAPK; both animal models (apoE−/− and TAC)): mitigated | solubility in water [1]: soluble in water | activity of lactosylceramide synthase in heart tissue [2]: dose-dependently decreased | fibrosis (apoE−/− mice [3]): reduced | intimal wall thickness (apoE−/− mice [3]): reduced | plaque accumulation (apoE−/− mice [3]): reduced | activity of lactosylceramide synthase in aorta tissue ([4]; 5 and 10 mpk, apoE−/− mice, HCl): dose-dependently decreased; also recorded: completely prevented | decrease of LCS activity as compared to hyperlipidemic mouse aorta ([4]; 5 mpk D-PDMP): ~52% | decrease of LCS activity as compared to hyperlipidemic mouse aorta ([4]; 10 mpk D-PDMP): ~32% | increase of serum level of oxidized -LDL (about 4-fold on western diet) (oxidized -LDL): mitigated | Catalase mRNA expression level ([5]; TAC and Apo E−/− mice): induces | SOD1 mRNA expression level ([5]; TAC and Apo E−/− mice): induces | SOD2 mRNA expression level ([5]; TAC and Apo E−/− mice): induces | ANP mRNA expression level [5, 15]: blunted | BNP mRNA expression level [5, 15]: blunted | βMHC mRNA expression level [5, 15]: blunted | mRNA levels of collagen type II and III genes ([5]; TAC mice): decreased | TGFβ over expression in hypertrophic mouse heart (TGFβ): mitigated | Blood Pressure* (mmHg), lower value (marked ^ in Control row) (apoE−/− mice [6]; [16]): 75.8 ± 11.55 mmHg | Blood Pressure* (mmHg), upper value (marked ** in Control row) (apoE−/− mice [6]; [16]): 102.98 ± 12.34 mmHg | blood pressure (apoE−/− mice [6]; daily oral gavage, apoE−/− mice on high fat and cholesterol diet): reversed the blood pressure to normal level | activity of glucosylceramide synthase in heart tissue [7]: dose-dependently decreased | activity of glucosylceramide synthase in aorta tissue [8]: dose-dependent decrease in glucosylceramide synthase activity was not observed; also recorded: completely prevented; also recorded: decreased | arterial stiffness (PWV) (apoE−/− mice [9]): reduces | fractional shortening [10]: completely reversed | left ventricular mass [10]: completely reversed | aortic intima media thickening (AoIMT) (apoE−/− mice [11]; 5 MPK + fat): progressively increased | aortic intima media thickening (AoIMT) (apoE−/− mice [11]; 10 MPK + fat): did not change | increase in aortic intima media thickening (IMT) caused by hyperlipidemic diet (apoE−/− mice [11]; dose not stated): reversed | level of glycosphingolipids (glycosphingolipids [12]): decreases | IVSD and PWTED wall thickness at end diastolic phase (apoE−/− mice [13]; 5-MPK D-PDMP + fat, up to 20 weeks of age): thicker | Fractional shortening (FS %) of left ventricle (apoE−/− mice [13]; 5 MPK + fat, 16 and 20 weeks of age): significant decline | Fractional shortening (FS %) vs baseline and control (apoE−/− mice [13]; 10 MPK + fat, 16 and 20 weeks): did not significantly differ from the baseline and control | IVSD and PWTED wall thickness at end diastolic phase (hypertrophied wall) (apoE−/− mice [13]; 10 MPK + fat, up to 20 weeks of age): non hypertrophied | Fractional Shortening (%) (apoE−/− mice [13]; 20 Weeks, 10MPK D-PDMP + Fat, n = 5, Mean±SEM): 61.77 ± 1.69% | fractional shortening (apoE−/− mice [13]; [17]): dose-dependent reversal | left ventricular mass (apoE−/− mice [13]; [17]): dose-dependent reversal | heart hypertrophy and dysfunction (M mode ultrasound) (apoE−/− mice [13]; hyperlipidemic diet, dose dependent manner): complete protection | mass of glycosphingolipids in heart tissue (glycosphingolipids [14]): inhibits

CCCCN1C[C@H](O)[C@@H](O)[C@H](O)[C@H]1CO [NB-DNJ, 1,5-(butylimino)-1,5-dideoxy-D-glucitol]
solubility in water [1]: soluble in water
